Source: patent US20040030161A1, “Recovery and purification of anhydro sugar alcohols from a vapor stream” (priority 2002, published 2004)

Type: physicochemical
Protocol: The basis for this process is illustrated for isosorbide in FIG. 1, where the upper curve represents the solubility of isosorbide in water (as percent by weight isosorbide) on the x-axis vs. temperature on the y-axis. The lower curve represents the composition of the condensate (as percent by weight isosorbide) when the condensation is conducted at a pressure of about 14 mm Hg. […] The condensate is a highly concentrated solution of isosorbide and contains only a small fraction as water. Thus, by conducting the condensation under these conditions, most of the isosorbide from, for example, a 20-30 weight percent isosorbide aqueous vapor stream is recovered, leaving most of the water in the vapor phase. The amount of isosorbide left in the vapor is negligibly small because of the very low vapor pressure of isosorbide, on the order of only about 0.001 mm Hg, at a condensation temperature of about 45° C.

solubility of isosorbide in water (percent by weight isosorbide): ~100%
SMILES: O[C@@H]1CO[C@H]2[C@@H]1OC[C@@H]2O [isosorbide, 1,4:3,6-dianhydrosorbitol]
